Here are results for two molecules from US20240002470A1, “Method for separation and/or detection and/or in vitro quantification of infectious compounds in biological material” (priority 2020, published 2024).

The test system of assay [1] is endogenous human retrovirus antigen (HERV), envelope protein of HERV-W. As to the kind of experiment: Capture of HERV antigen from serum on ELISA-type microtiter plates. The format is binding. The procedure:
The desired compound is an endogenous human retrovirus antigen (HERV: human endogenous retrovirus). Their research was carried out on serum from patients with autoimmune pathologies as well as on serum from healthy donors.
The support used is a microtiter plate of the ELISA type, with 96 wells and flat bottom, sold by the company “DYNATECH”. Four samples of serum from healthy donors and four samples from patients with autoimmune disease were used.
The serum sample is diluted ten times in 50 mM Tris-HCl buffer, pH 7.6±0.05.
100 μl of this solution are placed at the bottom of each well of the microplate.
This is then incubated at +37° C. for 90 minutes. The liquid from each well is then aspirated. Then 300 to 400 μl of phosphate buffer containing 0.01 mole/I of sodium and disodium phosphates and 0.15 mole/I of sodium chloride and having a pH of 7.00±0.05 are introduced into each well.
It is left in contact with the support for 3 minutes and the buffer is aspirated; this washing operation is carried out three times.
Next, 100 μl of a specific murine monoclonal antibody solution directed against the envelope protein of the endogenous HERV-W retrovirus is added per well.
The plate is left at 37° C. for 60 minutes.
Following this incubation, the contents of the wells of the plate are aspirated. 300 to 400 μl of phosphate buffer, described above, are introduced into each well, and after a contact time of 3 minutes, the buffer is aspirated; this washing operation is carried out three times.
Then, 100 μL of a solution of a polyclonal antibody recognizing the murine antibodies are added per well. The plate is left at 37° C. for 60 minutes. Following this incubation, the contents of the wells of the plate are aspirated. 300 to 400 μl of phosphate buffer, described above, are introduced into each well, and after a contact time of 3 minutes, the buffer is aspirated; this washing operation is carried out six times.
100 μl of a solution of o-phenylene diamine, 2HCl in a sodium citrate buffer are added per well. It is left to incubate for 30 minutes at room temperature, then the reaction is stopped by adding to each well 50 μl of 2N H2 SO4. The absorbance at 492 nm obtained at the end of the reaction is measured using a plate reader robot.
Results in the following table are expressed in P/2N, P corresponding to the average of the absorbances obtained for a given serum and N corresponding to the average of the absorbances obtained from healthy donors, multiplied by 2.
A general note: In an ELISA, binding on a coated surface is turned into a signal by an enzyme label.

Assay [2] relates to E. coli ATCC 8739. Put plainly: Capture of E. coli ATCC 8739 on magnetic microbeads, culture and counting. The format is binding, Escherichia coli. As to conditions: E. coli ATCC 8739 colonies from captured beads. The procedure:
(§1) One ml of the culture of bacteria to be studied is placed in a hemolysis tube. 100 μl of buffer are added, the trade name of which is TTGB, then 20 μl of microbeads. The tube is stirred horizontally, to mix the microbeads well, and incubated at 37° C. or at room temperature (TA=22° C.) for half an hour. At the end of the incubation, the microbeads are separated from the liquid phase by means of a magnet, placed externally against the wall of the tube. The microbeads are then washed twice with LB medium and then resuspended in 1 ml of BTS culture medium (Tripticase-Soy broth) having the following formulation: […]
(§2) This culture medium is brought to a boil and then autoclaved, to make it sterile, before use. 20 μl of the microbead suspension are taken and spread in a Petri dish containing TS agar (Trypticase-Soya agar) having the following formulation: […]
(§3) The Petri dishes are incubated at +37° C. for 24 hours. The bacteria that have grown on the agar are then counted.
The used bacteria were obtained from a collection strain of Escherichia coli (E. coli), ATCC 8739. The same experiment as that described in the previous example was carried out.

The test system of assay [3] is bacteria present in treated wastewater. Put plainly: Capture of bacteria present in treated wastewater on magnetic microbeads, culture and counting. The format is binding. On the procedure: as §1, §2, §3
The beads, on which β2GPI and peptides derived therefrom were grafted, were used to capture the bacteria present in treated wastewater. This water was recovered at the outlet of the purifier from the Grau-du-Roi treatment plant. The same experiment as that described in the previous example was carried out.

Assay [4] concerns SCN. Put plainly: Capture from blood culture on magnetic microbeads, culture on TS agar: SCN. The class given is binding. On the procedure: (§4) The beads, on which β2GPI and peptides derived therefrom were grafted, were used for the capture of bacteria present in human blood and highlighted by blood culture.
(§5) These blood cultures are carried out by placing a venous blood sample […] in aerobic vials of BacT/ALERT®3D type. These flasks are then incubated in an automated system at 35° C. for at least 5 days. The bottles are equipped with a colorimetric detection system with a sensor located at the base of each bottle. Carbon dioxide produced by growing bacteria changes the color of the sensor; this change in color is detected by an automated system and indicates the presence of bacterial growth: these blood cultures are said to be positive. In the BacT/ALERT®3D vials there are particles of activated carbon, which inhibit antibiotics potentially present in the blood of patients, thereby improving the detection of microorganisms. To confirm the presence of bacteria in blood cultures which have been found positive, the hospital performs a culture on blood agar. […]
(§6) To test the interaction of microbeads coated with β2GPI and the peptides derived from them, with bacteria present in the blood, 1 ml of blood culture is taken from each sample and placed in a 15 ml tube. […] The bacteria that have grown on the agar were then counted.

Assay [5] deals with E. faecium. As to the kind of experiment: Capture from blood culture on magnetic microbeads, culture on TS agar: E. faecium. The format is binding. The procedure: as §4, §5, §6
The subject of assay [6] is S. maltophilia. Put plainly: Capture from blood culture on magnetic microbeads, culture on TS agar: S. maltophilia. The class given is binding. The procedure: as §4, §5, §6
For assay [7], the system named is S. aureus ATCC 6538. Put plainly: Capture on magnetic microbeads coated with pepβ2GPI: C5 S. aureus ATCC 6538. The class given is binding. The procedure:
(§7) To test the interaction of microbeads coated with β2GPI and the peptides derived from them, with bacteria present in the blood, 1 ml of blood culture is taken from each sample and placed in a 15 ml tube. 20 μl of microbeads are added and each tube is incubated at 37° C. with horizontal shaking. The tubes are then placed in a magnetic field which retains the microbeads on the wall and the supernatant is removed. The microbeads are then washed twice with sterile PBS, of the same composition as previously indicated; the microbeads are then resuspended in 150 μl of BTS culture medium. Two methods for detecting bacteria captured by microbeads were used: culture on TS agar and PCR For the detection of the bacterial capture by culture, 50 μl of the suspension of microbeads thus obtained are taken and they are spread out in a Petri dish containing TS agar. Petri dishes are incubated in an oven at 37° C. for 24 hours. The bacteria that have grown on the agar were then counted.
(§8) The tested bacteria are: C3 E. coli ATCC 11105, C5 S. aureus ATCC 6538, H61 E. coli B6054, C1: E. coli ATCC 8739, H46: C. albicans 1 and H: 60 SCN
(§9) The same protocol and primers as those described in example 9 were carried out.

The test system of assay [8] is E. coli B6054. As to the kind of experiment: Capture on magnetic microbeads coated with pepβ2GPI: H61 E. coli B6054. The format is binding. The procedure: as §7, §8, §9
Where [9] appears, read: serum 6s (patient with autoimmune pathology).
[10] abbreviates: serum 45s (patient with autoimmune pathology).
The mark [11] stands for this setting: serum 99s (patient with autoimmune pathology).
The mark [12] stands for this setting: serum 100s (patient with autoimmune pathology).

H-((SSLAFWK)2-K)2-K—NH2 [Peptide P11]: the P/2N is given as 1.185 in assay [1] (setting [9]); 1.228 in assay [1] (setting [10]); 0.977 in assay [1] (setting [11]); 4.039 in assay [1] (setting [12]); 0.77 in assay [1] (serum DS 45s (healthy donor)); 0.718 in assay [1] (serum DS 46s (healthy donor)). For the same molecule, the P/2N was 0.631 in assay [1] (serum DS 60s (healthy donor)) and 0.727 in assay [1] (serum DS 61s (healthy donor)). Further, the “% compared to β2GPI” value is recorded as 99% in assay [2]; 105% in assay [3]; 101% in assay [4]; 88% in assay [5]; 29% in assay [6]. Besides, in assay [7], the “Capture of C5 S. aureus ATCC 6538” value is given as 63%. In assay [8], the “Capture of H61 E. coli B6054” value turned out to be 90%.

B1: β2GPI: plasma glycoprotein called β2-glycoprotein I, grafted on beads as the reference (protein, UniProt P02749 20-345, looked up)
Beta-2-glycoprotein 1: GRTCPKPDDLPFSTVVPLKTFYEPGEEITYSCKPGYVSRGGMRKFICPLTGLWPINTLKCTPRVCPFAGILENGAVRYTTFEYPNTISFSCNTGFYLNGADSAKCTEEGKWSPELPVCAPIICPPPSIPTFATLRVYKPSAGNNSLYRDTAVFECLPQHAMFGNDTITCTTHGNWTKLPECREVKCPFPSRPDNGFVNYPAKPTLYYKDKATFGCHDGYSLDGPEEIECTKLGNWSAMPSCKASCKVPVKKATVVYQGERVKIQEKFKNGMLHGDKVSFFCKNKEKKCSYTEDAQCIDGTIEVPKCFKEHSSLAFWKTDASDVKPC
modifications: grafted on beads
Take B1: the P/2N in assay [1] (setting [9]) was determined as 0.928; in assay [1] (setting [10]) it was 1.112; in assay [1] (setting [11]), 0.974; in assay [1] (setting [12]) it was 4.9; in assay [1] (serum DS 45s (healthy donor)) it was 0.69; in assay [1] (serum DS 46s (healthy donor)) it was 0.79. Besides, the P/2N is reported as 0.637 in assay [1] (serum DS 60s (healthy donor)) and 0.498 in assay [1] (serum DS 61s (healthy donor)). Further, the “% compared to β2GPI” value in assay [2], in assay [3], in assay [4], in assay [5] and in assay [6] was 100% each time.
